Experiments:
Format in all cases: physicochemical
[1] = Accelerated stability (40° C. and Rh=75%, liquid chromatogram and DSC)
Description: Crystal form III of (S)—N-[5-[1-(3-ethoxy-4-methoxyphenyl)-2-(methylsulfonyl)ethyl]-4,6-dioxo-5,6-dihydro-4H-thieno[3,4-c]pyrrole-1-yl]acetamide prepared according to the process of Example 1 was placed in a stability text box at 40° C. and Rh=75%. After 1 month, liquid chromatogram and DSC were tested.

[2] = High temperature stability (sealed oven at 40° C., liquid chromatogram and DSC)
Description: Crystal form III of (S)—N-[5-[1-(3-ethoxy-4-methoxyphenyl)-2-(methylsulfonyl)ethyl]-4,6-dioxo-5,6-dihydro-4H-thieno[3,4-c]pyrrole-1-yl]acetamide prepared according to the process of Example 1 was placed in a sealed oven at 40° C. After 1 month, liquid chromatogram and DSC were tested.

[3] = Dissolution rate of crystal form in water; conditions: about 25 mg in 900 mL water, 37° C., rotating speed 100/minute
Description: The crystal form III of (S)—N-[5-[l-(3-ethoxy-4-methoxyphenyl)-2-(methylsulfonyl)ethyl]-4,6-dioxo-5,6-dihydro-4H-thieno[3,4-c]pyrrole-1-yl]acetamide prepared according to the process in Example 1 was tested.
About 25 mg of crystal form III of (S)—N-[5-[1-(3-ethoxy-4-methoxyphenyl)-2-(methylsulfonyl)ethyl]-4,6-dioxo-5,6-dihydro-4H-thieno[3,4-c]pyrrole-1-yl]acetamide was added to 900 mL of water. The mixture was stirred at a rotating speed of 100/minute at 37° C. for 90 minutes. The supernatant was filtered and diluted. The concentration of the diluted solution (a mg/mL) was determined by ultraviolet spectrophotometer. The dissolution rate was calculated according to the formula 900a/25×100%.

[4] = Moisture absorption stability / hygroscopicity (RH=80%); conditions: RH=80% (saturated ammonium chloride solution) until weight balanced
Description: Moisture absorption of crystal form III of (S)—N-[5-[1-(3-ethoxy-4-methoxyphenyl)-2-(methylsulfonyl)ethyl]-4,6-dioxo-5,6-dihydro-4H-thieno[3,4-c]pyrrole-1-yl]acetamide was studied. Crystal form III of (S)—N-[5-[1-(3-ethoxy-4-methoxyphenyl)-2-(methylsulfonyl)ethyl]-4,6-dioxo-5,6-dihydro-4H-thieno[3,4-c]pyrrole-1-yl]acetamide was placed in a drier containing saturated ammonium chloride solution (RH=80%) until weight was balanced. The crystal form was tested with XRPD.
Crystal form III of (S)—N-[5-[1-(3-ethoxy-4-methoxyphenyl)-2-(methylsulfonyl)ethyl]-4,6-dioxo-5,6-dihydro-4H-thieno[3,4-c]pyrrole-1-yl]acetamide prepared according to the process of Example 1 was tested.

[5] = Aqueous solution balance stability (crystal form by XRPD after equilibrium in water); conditions: 37° C., 24 hours
Description: About 0.5 g of crystal form III of (S)—N-[5-[1-(3-ethoxy-4-methoxyphenyl)-2-(methylsulfonyl)ethyl]-4,6-dioxo-5,6-dihydro-4H-thieno[3,4-c]pyrrole-1-yl]acetamide was added to 40 mL of water. The mixture was stirred at 37° C. for 24 hours. The suspension was filtered. After wet solid was dried, crystal form of powders was tested with X-ray powder diffraction (XRPD).

stability under high-temperature and high-humidity conditions ([1]; 40° C. and Rh=75%, 1 month): good stability | Relevant Substance Contents at Day 0 (%) ([1]; Day 0, before storage at 40° C. RH = 75%): 0.07% | Relevant Substance Contents after 1 Month (%) ([1]; storage 40° C. RH = 75%, 1 month): 0.09% | stability under high temperature conditions ([2]; 40° C., 1 month): good stability | Relevant Substance Contents at Day 0 (%) ([2]; Day 0, before storage at 40° C.): 0.07% | Relevant Substance Contents after 1 Month (%) ([2]; storage 40° C., sealed oven, 1 month): 0.09% | Dissolution Rate (%) ([3]; time 0 min): 0% | Dissolution Rate (%) ([3]; time 15 min): 32.2% | Dissolution Rate (%) ([3]; time 30 min): 46.3% | Dissolution Rate (%) ([3]; time 45 min): 55.1% | Dissolution Rate (%) ([3]; time 60 min): 61.8% | Dissolution Rate (%) ([3]; time 75 min): 66.5% | Dissolution Rate (%) ([3]; time 90 min): 71.5% | Moisture Absorption %) [4]: 1.17% | Weight Increase ([4]; mAPI 0.511 g): 0.006 g | stability in water [5]: good stability
SMILES: CCOc1cc([C@@H](CS(C)(=O)=O)N2C(=O)c3csc(NC(C)=O)c3C2=O)ccc1OC [Crystal Form III, (S)—N-[5-[1-(3-ethoxy-4-methoxyphenyl)-2-(methylsulfonyl)ethyl]-4,6-dioxo-5,6-dihydro-4H-thieno[3,4-c]pyrrole-1-yl]acetamide]

Reference: patent publication US12180222B2, “Crystal forms of thiophene derivatives” (Tianjin Hemay Pharmaceutical Co., Ltd, priority 2018, dated 2024)
